In US5846516A, “Perfluoroalkylated amphiphilic phosphorus compounds: preparation and biomedical applications” (Alliance Pharmaceutial Corp., priority 1992, dated 1998):
Where two headings read alike, the source gives them in different places.

Assays:
human red blood cells = test: Hemolysis of red blood cells; assay type: cell-based
Protocol: (§1) Compound 22 is non-hemolytic at a 50 g/L concentration, and its LD50 is higher than 2000 mg/kg in intravenous injection into mice. […] Furthermore, these derivatives show a higher i.v. tolerance than the single-chain compounds disclosed in WO 90/15807 C (25 ≤LD50 ≤125 mg/kg bw).
(§2) *solution added to an equal volume of a suspension, at 1% concentration o
(§3) washed red blood cells in saline.

[1] = Hemolysis of red blood cells; assay type: cell-based, human; settings: human, read-out: Hemolysis, % hem.
Protocol: as §1, §2, §3

[2] = Dispersibility in water at 25° C.
[3] = Toxicity in mice after intravenous injection (LD50, survival); assay type: in vivo; settings: mouse, in vivo; intravenous injection into mice
Protocol: as §1

mice = test: as above; assay type: in vivo; settings: for Toxicity in mice, Survival: i.v.
Protocol: as §1

[4] = Critical micellar concentration (CMC); assay type: physicochemical; settings: aqueous solutions, 20° C.
Description: (§4) The compounds described in this invention are very efficient surface agents, greatly lowering the surface (γs) and interfacial (γi) tensions between water and a fluorocarbon when added to water. Thus at 1 g/L in water, γs goes from 73 (pure water) to 19.7-33.8 mNm^-1, and γi [water/perfluorodecalin (FDC) or perfluorooctyl bromide (PFOB) ] goes from 56 and 51 (in the absence of surfactant) to 5.1-8.9 mNm^-1 and 4.7-10.5 mNm^-1 respectively, as illustrated by the examples assembled in the table below. These compounds are also characterized by low values of critical micellar concentration: (CMC:from 1.10^-6 to 1.7.10^-3 M).
(§5) Surface Activity Data of Aqueous Solutions

[5] = Surface activity of aqueous solutions: surface (γs) and interfacial (γi) tensions; assay type: physicochemical; settings: 20° C., ±0.3 mNm^-1
Description: as §4, with “[…],” for “Thus at 1 g/L in water,”
as §5

[6] = Growth and viability of Namalva cell cultures; assay type: cell-based; settings: human; for activity: namalva cells; for viability: Namalva cells
[7] = assay type: physicochemical; settings: 90% w/v PFOB
Protocol: (§6) The products described in this invention, used as surfactants or co-surfactants, allow the preparation and stabilization of fluorocarbon emulsions. The emulsions were prepared by sonification (BRANSON B30 sonicator) (for 50% w/v of fluorocarbon) or by high-pressure microfluidization ((MICROFLUIDICS M 110)) (for more concentrated fluorocarbon emulsions). The ageing of these emulsions at 40° C. (accelerated ageing conditions) was followed by measuring the average size of the particles by a photosedimentation method (HORIBA CAPA 500) and compared with reference emulsions prepared with natural egg-yolk lecithins or poloxamers, for example Pluronic F-68.
To prepare 40 mL of a 90% w/v PFOB emulsion, surfactant 7b (400 mg) was first dispersed in 19.6 mL of a phosphate buffer with an Ultra Turrax. PFOB (36 g) was then added slowly and the whole was mixed for 10 min at 24000 revolutions/min. The resulting pre-emulsion was transferred into a microfluidizer and emulsified for 1 min at 800-1000 bar.
This emulsion was prepared as for example 28 with 200 mg of 7b and 1.4 g of EYP for 35 g of PFOB.

[8] = Ageing of sonicated perfluorodecalin (FDC 50% w/v) emulsions at 40° C., average particle size; assay type: physicochemical; settings: FIG. 5; 50% w/v PFD sterilized emulsions, 3% surfactant
Protocol: as §6
To prepare 12 mL of an emulsion of FDC (50% w/v) with 3% w/v of 7b, the surfactant (360 mg) was first sonicated in a rosette cell at 0° C., in 8.55 mL of water. Next, the FDC (6 g) was added and the whole is sonicated, until optimal average particle size and size distribution are obtained. The emulsion was then divided into aliquots, stocked under inert atmosphere, sterilized for 8 min at 121° C. in an autoclave, then stored at 40° C. and monitored over time.
The same process but with a mixture of surfactants composed of 120 mg of 7b and 240 mg of natural egg-yolk lecithins (EYP) gave FDC emulsion with the following average particle sizes: 0.15 μm on preparation, 0.21 μm after sterilization and 0.32 μm after 30 days at 40° C. […]

O=P(O)(OCCC(F)(F)C(F)(F)C(F)(F)C(F)(F)C(F)(F)C(F)(F)F)OC[C@H]1OC(O)[C@H](O)[C@@H](O)[C@@H]1O (stereo partly drawn) [Compound 7a, [2-(F-hexyl)ethyl](6-D-glucosyl)(sodium)phosphate]
hemolytic activity (in words) (human red blood cells; even at 100 g/L): no hemolytic activity
hemolysis ([1]; 100 g/L, solution added to an equal volume of 1% washed red blood cells in saline): 0%
solubility [2]: 350 mg/mL
LD50 [3]: ~750 mg/kg
Toxicity in mice, Survival (mice; dose 750 (mg/kg)): 4/10
CMC [4]: 1.55 mM
γi /FDC (interfacial tension water/perfluorodecalin) ([5]; 1 g/L in water): 5.6 mNm^-1
γi /PFOB (interfacial tension water/perfluorooctyl bromide) ([5]; 1 g/L in water): 4.7 mNm^-1
γs (surface tension) ([5]; 1 g/L in water): 19.7 mNm^-1
activity ([6]; 0.1 g/L): 82%
activity ([6]; 1 g/L): 51%
viability ([6]; 1 g/L): 97%

O=P(O)(OCCC(F)(F)C(F)(F)C(F)(F)C(F)(F)C(F)(F)C(F)(F)C(F)(F)C(F)(F)F)OC[C@H]1OC(O)[C@H](O)[C@@H](O)[C@@H]1O (stereo partly drawn) [Compound 7b, [2-(F-octyl)ethyl](6-D-glucosyl)(sodium)phosphate]
stability of PFOB emulsion vs. EYP emulsion (in words) ([7]; FIG. 6, 1% w/v 7b vs 4% EYP, 40° C.): more stable than an emulsion containing 4% of EYP
co-surfactant effect with EYP on particle size and stabilization (in words) ([7]; FIG. 7, 1/8th of 4% EYP replaced by 7b): significantly reduces the average particle size and causes strong stabilization
hemolytic effect (in words) (human red blood cells; dispersion at 30 g/L in 20 g/L Pluronic F-68): no hemolytic effect
hemolysis ([1]; 30 g/L, dispersed in a 20 g/L Pluronic F68 solution, added to an equal volume of 1% washed red blood cells in saline): 0%
Toxicity in mice, Survival (mice; dose 125 (mg/kg)): 10/10
ageing at 40° C. of perfluorodecalin emulsions (in words) [8]: superimposable
activity ([6]; 1 g/L): 76%
viability ([6]; 1 g/L): 104%

O=P(O)(OCCC(F)(F)C(F)(F)C(F)(F)C(F)(F)C(F)(F)C(F)(F)C(F)(F)C(F)(F)F)O[C@H]1[C@H](O)[C@@H](CO)OC(O)[C@@H]1O (stereo partly drawn) [Compound 8b, [2-(F-octyl)ethyl] (3-D-glucosyl)(sodium) phosphate]
solubility [2]: 250 mg/mL
CMC [4]: 1.68 mM
ageing at 40° C. of perfluorodecalin emulsions (in words) [8]: superimposable
γi /FDC (interfacial tension water/perfluorodecalin) ([5]; 1 g/L in water): 5.6 mNm^-1
γi /PFOB (interfacial tension water/perfluorooctyl bromide) ([5]; 1 g/L in water): 8.3 mNm^-1
γs (surface tension) ([5]; 1 g/L in water): 27.5 mNm^-1

[2-(F-octyl)ethyl] bis [polyethylene glycol methyl ether] phosphate triester 20, n=7 [Compound 20]
CMC [4]: 0.025 mM
γi /FDC (interfacial tension water/perfluorodecalin) ([5]; 0.1 g/L (0.083 mM) in water): 13.1 mNm^-1
γi /PFOB (interfacial tension water/perfluorooctyl bromide) ([5]; 0.1 g/L (0.083 mM) in water): 9.2 mNm^-1
γs (surface tension) ([5]; 0.1 g/L (0.083 mM) in water): 33.8 mNm^-1
Dispersibility at 25° C., g/L in water: > 100 g/L

[5-(F-octyl)pentyl] bis [polyethylene glycol methyl ether] phosphate triester 21, n=7 [Compound 21]
Toxicity in mice, Survival (mice; dose 500 (mg/kg)): 10/10
Toxicity in mice, Survival (mice; dose 1000 (mg/kg)): 3/10
CMC [4]: 0.001 mM
γi /FDC (interfacial tension water/perfluorodecalin) ([5]; 0.01 g/L (0.008 mM) in water): 9.6 mNm^-1
γi /PFOB (interfacial tension water/perfluorooctyl bromide) ([5]; 0.01 g/L (0.008 mM) in water): 7.5 mNm^-1
γs (surface tension) ([5]; 0.01 g/L (0.008 mM) in water): 29.6 mNm^-1
Dispersibility at 25° C., g/L in water: > 100 g/L

[5-(F-octyl)pentyl] bis [polyethylene glycol methyl ether] phosphate triester 22, n=16 [Compound 22]
hemolytic activity (in words) (human red blood cells; 50 g/L): non-hemolytic
Toxicity in mice, Survival (mice; dose 2000 (mg/kg)): 10/10
LD50 (mice; intravenous injection into mice): higher than 2000 mg/kg
in vivo (i.v.) tolerance (in words) (mice; intravenous, mice): in vivo tolerance increases from 21 to 22
